From publication PMC6199744, “Development of Chemical Proteomics for the Folateome and Analysis of the Kinetoplastid Folateome” (ACS Infectious Diseases, 2018)
Read-outs that look alike come from different tables or passages of the source.

Key:
Type in all cases: binding
[1] = biological target: T1, HeLa cell extract proteins (Homo sapiens, UniProt A3KMH1)
T1 construct: endogenous in cells; host or cells: HeLa cell extract

[2] = biological target: T2, HeLa cell extract proteins (Homo sapiens, UniProt O00743)
T2 construct: endogenous in cells; host or cells: HeLa cell extract
T2 sequence (O00743 1-305): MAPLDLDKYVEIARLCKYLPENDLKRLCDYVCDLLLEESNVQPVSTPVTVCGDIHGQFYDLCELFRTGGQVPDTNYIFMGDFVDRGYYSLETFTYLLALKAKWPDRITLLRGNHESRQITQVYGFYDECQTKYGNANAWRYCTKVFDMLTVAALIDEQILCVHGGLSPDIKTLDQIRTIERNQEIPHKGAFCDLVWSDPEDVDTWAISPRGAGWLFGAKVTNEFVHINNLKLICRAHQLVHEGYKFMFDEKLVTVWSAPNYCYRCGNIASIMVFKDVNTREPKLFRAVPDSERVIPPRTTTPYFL

[3] = biological target: T3, HeLa cell extract proteins (Homo sapiens, UniProt P24534)
T3 construct: endogenous in cells; host or cells: HeLa cell extract
T3 sequence (P24534 1-225): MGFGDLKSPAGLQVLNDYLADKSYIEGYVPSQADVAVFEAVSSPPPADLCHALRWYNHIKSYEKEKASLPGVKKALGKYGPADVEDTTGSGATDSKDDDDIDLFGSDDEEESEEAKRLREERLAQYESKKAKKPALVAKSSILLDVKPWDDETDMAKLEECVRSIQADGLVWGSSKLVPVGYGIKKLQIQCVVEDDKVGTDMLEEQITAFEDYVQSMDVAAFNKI

[4] = biological target: T4, HeLa cell extract proteins (Homo sapiens, UniProt Q13310)
T4 construct: endogenous in cells; host or cells: HeLa cell extract
T4 sequence (Q13310 whole entry): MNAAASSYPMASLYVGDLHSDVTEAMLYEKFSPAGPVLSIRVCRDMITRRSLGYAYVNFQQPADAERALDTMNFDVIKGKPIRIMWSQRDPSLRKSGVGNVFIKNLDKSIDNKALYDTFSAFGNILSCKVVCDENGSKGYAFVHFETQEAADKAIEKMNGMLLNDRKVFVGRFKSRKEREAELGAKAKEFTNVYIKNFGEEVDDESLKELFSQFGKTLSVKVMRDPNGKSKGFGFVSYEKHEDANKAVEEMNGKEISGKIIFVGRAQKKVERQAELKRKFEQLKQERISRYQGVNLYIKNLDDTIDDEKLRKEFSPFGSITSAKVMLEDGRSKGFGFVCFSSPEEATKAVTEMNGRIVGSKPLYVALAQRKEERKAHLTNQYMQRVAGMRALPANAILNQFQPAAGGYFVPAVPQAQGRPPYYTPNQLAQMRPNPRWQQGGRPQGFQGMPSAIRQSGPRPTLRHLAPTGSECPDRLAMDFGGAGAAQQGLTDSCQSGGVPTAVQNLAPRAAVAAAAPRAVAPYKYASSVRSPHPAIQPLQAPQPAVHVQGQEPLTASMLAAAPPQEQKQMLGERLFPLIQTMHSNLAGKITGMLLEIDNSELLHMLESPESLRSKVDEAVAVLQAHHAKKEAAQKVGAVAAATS

[5] = biological target: T5, HeLa cell extract proteins (Homo sapiens, UniProt P39656)
T5 construct: endogenous in cells; host or cells: HeLa cell extract
T5 sequence (P39656 43-456): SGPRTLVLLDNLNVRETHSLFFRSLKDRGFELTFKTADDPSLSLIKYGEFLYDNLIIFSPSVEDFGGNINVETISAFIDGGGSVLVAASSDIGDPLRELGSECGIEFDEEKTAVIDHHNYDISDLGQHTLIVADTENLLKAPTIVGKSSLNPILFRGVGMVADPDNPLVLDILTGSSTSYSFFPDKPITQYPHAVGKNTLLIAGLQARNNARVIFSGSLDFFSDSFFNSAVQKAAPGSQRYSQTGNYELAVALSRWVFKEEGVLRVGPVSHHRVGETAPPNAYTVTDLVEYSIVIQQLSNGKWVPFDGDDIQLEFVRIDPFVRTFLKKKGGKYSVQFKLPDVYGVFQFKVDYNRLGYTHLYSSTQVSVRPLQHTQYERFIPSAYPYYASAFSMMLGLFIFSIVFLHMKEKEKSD

[6] = biological target: T6, HeLa cell extract proteins (Homo sapiens, UniProt Q9BVS4)
T6 construct: endogenous in cells; host or cells: HeLa cell extract
T6 sequence (Q9BVS4 whole entry): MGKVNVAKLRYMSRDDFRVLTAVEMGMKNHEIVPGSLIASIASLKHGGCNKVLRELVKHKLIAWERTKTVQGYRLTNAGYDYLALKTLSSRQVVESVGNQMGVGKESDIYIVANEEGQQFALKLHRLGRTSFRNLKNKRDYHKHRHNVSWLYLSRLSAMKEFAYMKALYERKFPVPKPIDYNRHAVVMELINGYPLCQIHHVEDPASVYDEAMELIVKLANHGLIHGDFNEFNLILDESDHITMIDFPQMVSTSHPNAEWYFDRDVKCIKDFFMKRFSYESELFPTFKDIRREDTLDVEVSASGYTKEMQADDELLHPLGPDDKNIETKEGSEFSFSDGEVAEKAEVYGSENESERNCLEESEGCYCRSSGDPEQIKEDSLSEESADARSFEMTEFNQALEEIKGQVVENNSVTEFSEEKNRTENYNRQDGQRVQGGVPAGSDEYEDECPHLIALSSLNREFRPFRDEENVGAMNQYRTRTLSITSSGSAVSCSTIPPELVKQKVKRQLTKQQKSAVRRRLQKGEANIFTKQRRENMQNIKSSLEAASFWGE

[7] = biological target: T7, HeLa cell extract proteins (Homo sapiens, UniProt P25705)
T7 construct: endogenous in cells; host or cells: HeLa cell extract
T7 sequence (P25705 44-553): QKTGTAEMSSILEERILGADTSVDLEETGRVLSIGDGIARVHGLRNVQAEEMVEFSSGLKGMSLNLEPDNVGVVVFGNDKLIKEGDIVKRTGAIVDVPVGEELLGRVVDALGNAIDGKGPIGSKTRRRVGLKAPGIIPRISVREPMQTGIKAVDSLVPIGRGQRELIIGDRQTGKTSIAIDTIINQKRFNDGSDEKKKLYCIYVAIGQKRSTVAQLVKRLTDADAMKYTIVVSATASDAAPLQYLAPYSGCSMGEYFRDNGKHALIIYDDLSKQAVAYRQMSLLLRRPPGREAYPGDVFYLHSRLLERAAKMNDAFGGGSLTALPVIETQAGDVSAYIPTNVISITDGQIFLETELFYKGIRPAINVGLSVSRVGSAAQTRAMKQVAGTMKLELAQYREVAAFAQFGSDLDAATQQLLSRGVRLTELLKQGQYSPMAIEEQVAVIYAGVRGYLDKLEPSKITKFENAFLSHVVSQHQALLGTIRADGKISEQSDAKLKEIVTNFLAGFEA

[8] = biological target: T8, HeLa cell extract proteins (Homo sapiens, UniProt P41091)
T8 construct: endogenous in cells; host or cells: HeLa cell extract
T8 sequence (P41091 whole entry): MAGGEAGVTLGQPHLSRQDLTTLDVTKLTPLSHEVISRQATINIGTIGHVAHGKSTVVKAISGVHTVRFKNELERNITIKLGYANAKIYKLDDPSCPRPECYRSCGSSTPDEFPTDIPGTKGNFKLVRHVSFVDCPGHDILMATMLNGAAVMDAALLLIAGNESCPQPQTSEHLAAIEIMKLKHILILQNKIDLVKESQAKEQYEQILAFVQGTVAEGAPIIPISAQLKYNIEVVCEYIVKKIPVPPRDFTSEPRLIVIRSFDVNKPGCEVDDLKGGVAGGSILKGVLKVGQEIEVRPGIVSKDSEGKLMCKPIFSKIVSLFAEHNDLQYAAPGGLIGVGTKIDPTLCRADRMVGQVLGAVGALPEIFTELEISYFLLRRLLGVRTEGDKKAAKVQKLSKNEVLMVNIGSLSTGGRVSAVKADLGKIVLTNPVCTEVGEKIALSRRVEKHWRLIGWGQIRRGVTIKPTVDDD

[9] = biological target: T9, HeLa cell extract proteins (Homo sapiens, UniProt P27708)
T9 construct: endogenous in cells; host or cells: HeLa cell extract

[10] = biological target: T10, HeLa cell extract proteins (Homo sapiens, UniProt O15427)
T10 construct: endogenous in cells; host or cells: HeLa cell extract
T10 sequence (O15427 1-465): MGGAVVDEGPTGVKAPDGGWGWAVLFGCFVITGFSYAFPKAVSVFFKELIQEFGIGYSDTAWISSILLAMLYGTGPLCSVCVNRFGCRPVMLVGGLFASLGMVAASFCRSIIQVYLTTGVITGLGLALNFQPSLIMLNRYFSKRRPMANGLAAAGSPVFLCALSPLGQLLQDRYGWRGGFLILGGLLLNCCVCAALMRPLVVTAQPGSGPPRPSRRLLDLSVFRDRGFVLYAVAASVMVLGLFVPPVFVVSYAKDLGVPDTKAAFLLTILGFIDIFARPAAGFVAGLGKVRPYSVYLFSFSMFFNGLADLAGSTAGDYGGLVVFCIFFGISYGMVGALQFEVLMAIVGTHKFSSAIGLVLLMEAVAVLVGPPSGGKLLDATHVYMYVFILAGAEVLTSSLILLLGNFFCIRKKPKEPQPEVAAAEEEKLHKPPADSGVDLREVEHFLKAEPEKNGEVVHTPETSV

T1 sequence (A3KMH1 29-1905): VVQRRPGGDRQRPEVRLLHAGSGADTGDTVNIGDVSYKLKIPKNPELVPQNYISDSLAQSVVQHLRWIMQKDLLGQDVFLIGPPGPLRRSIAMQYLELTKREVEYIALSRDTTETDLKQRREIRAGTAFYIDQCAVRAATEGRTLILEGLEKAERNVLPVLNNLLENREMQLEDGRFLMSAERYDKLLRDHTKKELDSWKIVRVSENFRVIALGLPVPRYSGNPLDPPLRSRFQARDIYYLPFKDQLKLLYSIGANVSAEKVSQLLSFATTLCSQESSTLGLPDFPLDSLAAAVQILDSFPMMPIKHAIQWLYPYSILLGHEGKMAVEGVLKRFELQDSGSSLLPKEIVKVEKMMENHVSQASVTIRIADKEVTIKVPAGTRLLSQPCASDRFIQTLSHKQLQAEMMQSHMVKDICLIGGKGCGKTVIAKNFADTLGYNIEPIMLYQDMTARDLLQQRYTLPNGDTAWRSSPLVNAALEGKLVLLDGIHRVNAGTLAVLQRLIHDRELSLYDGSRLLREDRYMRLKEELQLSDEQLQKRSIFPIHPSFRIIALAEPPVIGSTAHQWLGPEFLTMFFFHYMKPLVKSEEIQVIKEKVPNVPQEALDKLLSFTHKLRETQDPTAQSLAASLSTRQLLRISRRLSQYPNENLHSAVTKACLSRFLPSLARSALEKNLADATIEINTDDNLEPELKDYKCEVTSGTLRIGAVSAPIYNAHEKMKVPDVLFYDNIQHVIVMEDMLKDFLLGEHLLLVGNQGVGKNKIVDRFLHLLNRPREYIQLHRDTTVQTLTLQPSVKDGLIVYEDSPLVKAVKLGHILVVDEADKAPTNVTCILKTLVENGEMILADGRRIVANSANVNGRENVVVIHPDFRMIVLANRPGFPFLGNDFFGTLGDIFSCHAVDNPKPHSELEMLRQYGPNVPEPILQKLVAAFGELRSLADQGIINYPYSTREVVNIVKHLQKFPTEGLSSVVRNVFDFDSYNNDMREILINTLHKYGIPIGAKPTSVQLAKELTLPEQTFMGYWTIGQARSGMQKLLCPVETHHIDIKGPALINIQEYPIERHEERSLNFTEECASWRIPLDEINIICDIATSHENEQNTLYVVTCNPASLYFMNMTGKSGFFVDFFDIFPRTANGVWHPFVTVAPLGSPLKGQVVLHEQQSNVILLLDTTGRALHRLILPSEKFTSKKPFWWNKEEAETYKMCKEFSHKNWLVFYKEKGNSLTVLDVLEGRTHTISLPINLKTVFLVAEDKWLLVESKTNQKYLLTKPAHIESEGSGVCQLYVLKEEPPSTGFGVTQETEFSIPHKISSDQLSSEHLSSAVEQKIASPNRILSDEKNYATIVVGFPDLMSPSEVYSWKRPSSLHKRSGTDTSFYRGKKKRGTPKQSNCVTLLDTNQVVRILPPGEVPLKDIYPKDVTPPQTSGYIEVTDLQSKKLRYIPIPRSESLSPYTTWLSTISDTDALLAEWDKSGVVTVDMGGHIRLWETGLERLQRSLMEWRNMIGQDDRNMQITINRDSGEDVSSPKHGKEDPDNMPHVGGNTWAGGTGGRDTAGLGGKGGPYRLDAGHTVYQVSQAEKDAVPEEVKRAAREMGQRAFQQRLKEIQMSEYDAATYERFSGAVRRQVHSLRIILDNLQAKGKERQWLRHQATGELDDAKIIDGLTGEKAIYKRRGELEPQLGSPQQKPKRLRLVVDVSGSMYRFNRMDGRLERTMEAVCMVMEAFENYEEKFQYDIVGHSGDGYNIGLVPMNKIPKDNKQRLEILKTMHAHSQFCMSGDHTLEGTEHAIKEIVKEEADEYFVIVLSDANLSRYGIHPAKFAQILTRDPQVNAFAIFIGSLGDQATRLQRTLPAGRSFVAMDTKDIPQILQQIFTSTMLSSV

In the case of `Nc1nc2c(c(=O)[nH]1)N(C=O)C(CNc1ccc(C(=O)N[C@@H](CCC(=O)O)C(=O)O)cc1)CN2` (stereo partly shown) [LEU, leucovorin], the “fold changes relative to vehicle control” value ([1]; HeLa, protein KIAA0564) is reported as 1, the “fold changes relative to vehicle control” value ([2]; HeLa, protein PPP6C) is reported as 0.99 and the “fold changes relative to vehicle control” value ([3]; protein EEF1B2, HeLa) is reported as 0.84. For the same compound, the “fold changes relative to vehicle control” value ([4]; HeLa, protein PABPC4) was 0.83, the “fold changes relative to vehicle control” value ([5]; HeLa, captured protein DDOST) was 0.8 and the “fold changes relative to vehicle control” value ([6]; HeLa, protein RIOK2) was 0.84. The “fold changes relative to vehicle control” value ([7]; HeLa, captured protein ATP5A1) was 0.99, the “fold changes relative to vehicle control” value ([8]; protein EIF2S3, HeLa) was 0.81 and the “fold changes relative to vehicle control” value ([9]; protein CAD, HeLa) was 1.34. The “fold changes relative to vehicle control” value ([10]; HeLa, protein SLC16A3) was 0.96.

For `NCCCNc1ccc(C(=O)NC(CCC(=O)O)C(=O)O)cc1` (stereo not shown) [compound 7], the “fold changes relative to vehicle control” value ([1]; HeLa, protein KIAA0564) was 1.09, the “fold changes relative to vehicle control” value ([2]; HeLa, protein PPP6C) was 1.04 and the “fold changes relative to vehicle control” value ([3]; protein EEF1B2, HeLa) was 0.87. For the same compound, the “fold changes relative to vehicle control” value ([4]; HeLa, protein PABPC4) was 1, the “fold changes relative to vehicle control” value ([5]; HeLa, captured protein DDOST) was 1.07 and the “fold changes relative to vehicle control” value ([6]; HeLa, protein RIOK2) was 0.87. The “fold changes relative to vehicle control” value ([7]; HeLa, captured protein ATP5A1) was 0.99, the “fold changes relative to vehicle control” value ([8]; protein EIF2S3, HeLa) was 1 and the “fold changes relative to vehicle control” value ([9]; protein CAD, HeLa) was 1.3. For the same compound, the “fold changes relative to vehicle control” value ([10]; HeLa, protein SLC16A3) was 0.94.

For `CCCCCCOc1cccc(Cc2cnc(N)nc2N)c1` [compound 2], the “fold changes relative to vehicle control” value ([1]; protein KIAA0564, HeLa) was 1.11, the “fold changes relative to vehicle control” value ([2]; HeLa, protein PPP6C) was 0.99 and the “fold changes relative to vehicle control” value ([3]; protein EEF1B2, HeLa) was 1.63. The “fold changes relative to vehicle control” value ([4]; captured protein PABPC4, HeLa) was 1.2, the “fold changes relative to vehicle control” value ([5]; captured protein DDOST, HeLa) was 1.1 and the “fold changes relative to vehicle control” value ([6]; captured protein RIOK2, HeLa) was 0.95. For the same compound, the “fold changes relative to vehicle control” value ([7]; HeLa, protein ATP5A1) was 0.97, the “fold changes relative to vehicle control” value ([8]; protein EIF2S3, HeLa) was 1.13 and the “fold changes relative to vehicle control” value ([9]; captured protein CAD, HeLa) was 1.01. For the same compound, the “fold changes relative to vehicle control” value ([10]; HeLa, protein SLC16A3) was 0.94.

In the case of `CCCCCCOc1ccc(Cc2cnc(N)nc2N)cc1` [compound 1], the “fold changes relative to vehicle control” value ([1]; protein KIAA0564, HeLa) is reported as 0.99, the “fold changes relative to vehicle control” value ([2]; HeLa, protein PPP6C) is reported as 1.01 and the “fold changes relative to vehicle control” value ([3]; protein EEF1B2, HeLa) is reported as 1.03. The “fold changes relative to vehicle control” value ([4]; captured protein PABPC4, HeLa) was 0.86, the “fold changes relative to vehicle control” value ([5]; captured protein DDOST, HeLa) was 0.81 and the “fold changes relative to vehicle control” value ([6]; captured protein RIOK2, HeLa) was 0.94. For the same compound, the “fold changes relative to vehicle control” value ([7]; HeLa, protein ATP5A1) was 1, the “fold changes relative to vehicle control” value ([8]; protein EIF2S3, HeLa) was 1.07 and the “fold changes relative to vehicle control” value ([9]; captured protein CAD, HeLa) was 1.1. The “fold changes relative to vehicle control” value ([10]; HeLa, protein SLC16A3) was 0.83.

In the case of `Nc1nc2cccc(-c3ccccc3)c2n1Cc1ccc(Cl)c(Cl)c1` [compound 3], the “fold changes relative to vehicle control” value ([1]; protein KIAA0564, HeLa) is reported as 1.1, the “fold changes relative to vehicle control” value ([2]; HeLa, protein PPP6C) is reported as 1.04 and the “fold changes relative to vehicle control” value ([3]; protein EEF1B2, HeLa) is reported as 1.02. The “fold changes relative to vehicle control” value ([4]; captured protein PABPC4, HeLa) was 0.94, the “fold changes relative to vehicle control” value ([5]; captured protein DDOST, HeLa) was 1.05 and the “fold changes relative to vehicle control” value ([6]; captured protein RIOK2, HeLa) was 0.95. The “fold changes relative to vehicle control” value ([7]; HeLa, protein ATP5A1) was 0.87, the “fold changes relative to vehicle control” value ([8]; protein EIF2S3, HeLa) was 1.06 and the “fold changes relative to vehicle control” value ([9]; captured protein CAD, HeLa) was 1.14. For the same compound, the “fold changes relative to vehicle control” value ([10]; HeLa, protein SLC16A3) was 0.94.

In the case of `NCCOCCOCC(=O)Nc1nc2ncc(CNc3ccc(C(=O)NC(CCC(=O)O)C(=O)O)cc3)nc2c(=O)[nH]1` (stereo not shown) [compound 6], the “fold changes relative to vehicle control” value ([1]; HeLa, protein KIAA0564) is reported as 1.1, the “fold changes relative to vehicle control” value ([2]; HeLa, protein PPP6C) is reported as 1.05 and the “fold changes relative to vehicle control” value ([3]; protein EEF1B2, HeLa) is reported as 1.07. The “fold changes relative to vehicle control” value ([4]; HeLa, protein PABPC4) was 1.06, the “fold changes relative to vehicle control” value ([5]; HeLa, captured protein DDOST) was 0.95 and the “fold changes relative to vehicle control” value ([6]; HeLa, protein RIOK2) was 0.82. For the same compound, the “fold changes relative to vehicle control” value ([7]; HeLa, captured protein ATP5A1) was 0.95, the “fold changes relative to vehicle control” value ([8]; protein EIF2S3, HeLa) was 1.07 and the “fold changes relative to vehicle control” value ([9]; protein CAD, HeLa) was 1.18. For the same compound, the “fold changes relative to vehicle control” value ([10]; HeLa, protein SLC16A3) was 0.85.

With `Nc1nc2[nH]cc(CCc3ccc(C(=O)N[C@@H](CCC(=O)O)C(=O)O)cc3)c2c(=O)[nH]1` [PTX, pemetrexed] the “fold changes relative to vehicle control” value [1] was 0.99, the “fold changes relative to vehicle control” value [2] was 0.94 and the “fold changes relative to vehicle control” value [3] was 1. For the same compound, the “fold changes relative to vehicle control” value [4] was 0.93, the “fold changes relative to vehicle control” value [5] was 0.85 and the “fold changes relative to vehicle control” value [6] was 0.33. For the same compound, the “fold changes relative to vehicle control” value [7] was 0.94, the “fold changes relative to vehicle control” value [8] was 0.87 and the “fold changes relative to vehicle control” value [9] was 0.52. For the same compound, the “fold changes relative to vehicle control” value [10] was 0.85.
